Results: patent US20020061836A1, “Methods for altering SXR activation using peptide mimetic HIV protease inhibitor SXR ligands” (priority 2000, published 2002)

Assays:
mouse CARβ = biological target: T1, mouse CARβ (Mus musculus, UniProt O35627); test: Nuclear receptor specificity transfection assay / LXRE×3-TK-luc reporter with CARβ in CV-1 cells; assay type: cell-based; conditions: 10 μM paclitaxel
T1 sequence (O35627 1-358): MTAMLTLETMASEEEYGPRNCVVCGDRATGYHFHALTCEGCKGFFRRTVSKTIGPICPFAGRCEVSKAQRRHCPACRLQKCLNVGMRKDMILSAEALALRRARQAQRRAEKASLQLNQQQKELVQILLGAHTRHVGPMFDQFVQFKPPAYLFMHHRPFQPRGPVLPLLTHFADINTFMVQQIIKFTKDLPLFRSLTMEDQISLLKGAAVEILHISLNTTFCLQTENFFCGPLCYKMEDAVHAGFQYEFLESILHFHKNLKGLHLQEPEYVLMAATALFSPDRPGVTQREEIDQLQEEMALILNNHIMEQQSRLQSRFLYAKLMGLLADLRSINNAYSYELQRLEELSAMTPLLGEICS

[1] = system: LS180 human colon cancer cells; test: [14C]-paclitaxel efflux from pretreated LS180 cells; assay type: cell-based; conditions: LS180 cells induced 48 hours with 10 μM paclitaxel, 10 μM docetaxel or 100 nM LG268
Description: Taxane-induced drug efflux was measured using pretreated LS180 human colon cancer cells. The rate of drug efflux was measured. […] Individual data points are the means of triplicate determinations, error bars represent standard deviation and the lines are lines of regression. The slope of each line (rate of efflux) was compared to the slope obtained in the control (untreated) cells using an analysis of covariance. […] The entire experiment was performed three times with similar results. […] The cells were then incubated in media supplemented with 10 μM [^14C]-paclitaxel (4.9 μCi/umol, Moravek Biochemicals, Brea, Calif.) for 15 minutes. The uptake of ^14C-paclitaxel reached maximum levels at 10-12 minutes (data not shown). After 15 minutes, the cells were then rapidly centrifuged through silicone oil to remove all traces of extracellular radioactivity, resuspended in fresh media, and cell counts determined. At multiple time points over the next 10 minutes, triplicate aliquots of the cell suspension (approx. 1×10^5 cells/aliquot) were again centrifuged through silicon oil and the radioactivity in the cell pellet measured by quench-corrected liquid scintillation counting. The rate of [^14C]-paclitaxel efflux was determined as the slope of the [^14C]-paclitaxel versus time plots using all data. The slope for each inducer was compared to the slope obtained in the control (untreated) cells using an analysis of covariance.

human VDR = biological target: T2, human VDR (Homo sapiens, UniProt P11473); test: Nuclear receptor specificity transfection assay; assay type: cell-based; conditions: 10 μM paclitaxel
T2 construct: expressed in transfected cells; host or cells: CV-1

human ERα = human ERα (Homo sapiens, UniProt P03372); conditions: 10 μM paclitaxel
mouse PPARδ = biological target: T3, mouse PPARδ (Mus musculus, UniProt P35396); test: Nuclear receptor specificity transfection assay; assay type: cell-based; conditions: 10 μM paclitaxel
T3 construct: expressed in transfected cells; host or cells: CV-1
T3 sequence (P35396 1-440): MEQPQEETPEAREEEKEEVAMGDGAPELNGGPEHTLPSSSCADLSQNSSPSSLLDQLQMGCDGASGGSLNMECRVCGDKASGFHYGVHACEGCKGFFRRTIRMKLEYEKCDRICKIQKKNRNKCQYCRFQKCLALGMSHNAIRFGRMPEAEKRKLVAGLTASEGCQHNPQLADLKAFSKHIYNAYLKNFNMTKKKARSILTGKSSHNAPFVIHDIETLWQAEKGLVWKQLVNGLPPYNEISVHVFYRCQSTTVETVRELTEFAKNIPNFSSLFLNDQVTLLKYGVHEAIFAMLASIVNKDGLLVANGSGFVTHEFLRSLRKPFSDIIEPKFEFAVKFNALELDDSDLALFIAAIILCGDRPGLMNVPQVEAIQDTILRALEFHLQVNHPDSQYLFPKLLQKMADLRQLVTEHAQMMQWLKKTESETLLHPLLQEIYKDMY

CYP3A4 and CYP2C8 = conditions: read-out: Km for degradation of paclitaxel by CYP3A4 and CYP2C8; cited from earlier work
mouse PPARα = biological target: T4, mouse PPARα (Mus musculus, UniProt P23204); test: Nuclear receptor specificity transfection assay; assay type: cell-based; conditions: 10 μM paclitaxel
T4 construct: expressed in transfected cells; host or cells: CV-1
T4 sequence (P23204 1-468): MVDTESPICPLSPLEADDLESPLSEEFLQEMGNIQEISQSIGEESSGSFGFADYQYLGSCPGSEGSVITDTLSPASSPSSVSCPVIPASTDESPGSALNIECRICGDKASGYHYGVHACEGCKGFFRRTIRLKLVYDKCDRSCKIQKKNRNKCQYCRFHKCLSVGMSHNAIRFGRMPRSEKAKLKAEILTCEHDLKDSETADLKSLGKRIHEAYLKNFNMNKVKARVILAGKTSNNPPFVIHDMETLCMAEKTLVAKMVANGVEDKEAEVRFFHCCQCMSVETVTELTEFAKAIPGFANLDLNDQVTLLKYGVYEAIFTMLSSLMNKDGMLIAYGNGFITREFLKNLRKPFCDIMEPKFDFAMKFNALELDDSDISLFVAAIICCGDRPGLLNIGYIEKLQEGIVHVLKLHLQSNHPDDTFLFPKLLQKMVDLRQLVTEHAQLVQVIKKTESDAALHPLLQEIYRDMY

P-glycoprotein = P-glycoprotein (Mus musculus, UniProt P21447); conditions: orally administered; cited from earlier work
Sequence of P-glycoprotein (P21447 whole entry): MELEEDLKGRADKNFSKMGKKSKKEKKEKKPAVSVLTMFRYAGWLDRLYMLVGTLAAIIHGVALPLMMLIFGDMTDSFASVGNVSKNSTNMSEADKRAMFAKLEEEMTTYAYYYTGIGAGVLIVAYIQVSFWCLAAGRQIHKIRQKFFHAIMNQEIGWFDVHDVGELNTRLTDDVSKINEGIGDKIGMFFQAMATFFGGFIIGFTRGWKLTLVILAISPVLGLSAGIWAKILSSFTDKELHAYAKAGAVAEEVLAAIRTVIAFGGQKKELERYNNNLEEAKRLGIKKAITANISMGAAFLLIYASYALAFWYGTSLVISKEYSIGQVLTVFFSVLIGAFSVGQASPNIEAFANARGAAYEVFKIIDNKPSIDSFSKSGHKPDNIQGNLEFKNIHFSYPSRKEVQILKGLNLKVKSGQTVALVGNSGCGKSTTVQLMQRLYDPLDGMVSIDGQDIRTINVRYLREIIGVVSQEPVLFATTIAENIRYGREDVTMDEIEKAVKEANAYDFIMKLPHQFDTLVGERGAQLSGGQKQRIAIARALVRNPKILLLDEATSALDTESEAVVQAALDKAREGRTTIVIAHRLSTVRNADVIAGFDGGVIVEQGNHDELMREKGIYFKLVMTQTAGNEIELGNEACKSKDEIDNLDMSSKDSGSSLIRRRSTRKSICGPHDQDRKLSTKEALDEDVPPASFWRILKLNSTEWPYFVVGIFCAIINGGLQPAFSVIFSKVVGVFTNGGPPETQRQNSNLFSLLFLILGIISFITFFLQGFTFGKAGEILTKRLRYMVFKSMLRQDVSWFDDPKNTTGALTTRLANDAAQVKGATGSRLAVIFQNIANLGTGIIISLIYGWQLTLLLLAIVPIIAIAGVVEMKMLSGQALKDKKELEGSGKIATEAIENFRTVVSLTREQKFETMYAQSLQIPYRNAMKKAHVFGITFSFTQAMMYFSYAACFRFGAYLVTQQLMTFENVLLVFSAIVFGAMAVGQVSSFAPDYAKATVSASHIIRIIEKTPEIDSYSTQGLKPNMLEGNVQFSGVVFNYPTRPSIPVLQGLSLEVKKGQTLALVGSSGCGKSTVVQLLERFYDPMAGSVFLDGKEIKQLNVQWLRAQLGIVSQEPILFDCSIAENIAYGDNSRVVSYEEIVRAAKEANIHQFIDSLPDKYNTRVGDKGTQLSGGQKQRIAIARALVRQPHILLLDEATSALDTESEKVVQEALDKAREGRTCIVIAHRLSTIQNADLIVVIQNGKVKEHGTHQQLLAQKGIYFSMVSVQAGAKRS

T2 sequence (P11473 whole entry): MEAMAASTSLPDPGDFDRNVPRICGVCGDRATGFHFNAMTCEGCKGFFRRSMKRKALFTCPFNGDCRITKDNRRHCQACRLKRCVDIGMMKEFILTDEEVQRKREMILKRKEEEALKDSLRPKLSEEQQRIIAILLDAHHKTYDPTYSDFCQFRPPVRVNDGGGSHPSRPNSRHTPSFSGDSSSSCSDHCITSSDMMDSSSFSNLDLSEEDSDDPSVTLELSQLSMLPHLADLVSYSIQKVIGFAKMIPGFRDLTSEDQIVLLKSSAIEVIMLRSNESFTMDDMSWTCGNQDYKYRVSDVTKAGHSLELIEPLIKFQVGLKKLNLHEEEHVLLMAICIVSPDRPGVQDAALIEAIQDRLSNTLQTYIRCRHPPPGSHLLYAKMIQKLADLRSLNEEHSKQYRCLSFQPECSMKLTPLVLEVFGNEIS
Sequence of human ERα (P03372 whole entry): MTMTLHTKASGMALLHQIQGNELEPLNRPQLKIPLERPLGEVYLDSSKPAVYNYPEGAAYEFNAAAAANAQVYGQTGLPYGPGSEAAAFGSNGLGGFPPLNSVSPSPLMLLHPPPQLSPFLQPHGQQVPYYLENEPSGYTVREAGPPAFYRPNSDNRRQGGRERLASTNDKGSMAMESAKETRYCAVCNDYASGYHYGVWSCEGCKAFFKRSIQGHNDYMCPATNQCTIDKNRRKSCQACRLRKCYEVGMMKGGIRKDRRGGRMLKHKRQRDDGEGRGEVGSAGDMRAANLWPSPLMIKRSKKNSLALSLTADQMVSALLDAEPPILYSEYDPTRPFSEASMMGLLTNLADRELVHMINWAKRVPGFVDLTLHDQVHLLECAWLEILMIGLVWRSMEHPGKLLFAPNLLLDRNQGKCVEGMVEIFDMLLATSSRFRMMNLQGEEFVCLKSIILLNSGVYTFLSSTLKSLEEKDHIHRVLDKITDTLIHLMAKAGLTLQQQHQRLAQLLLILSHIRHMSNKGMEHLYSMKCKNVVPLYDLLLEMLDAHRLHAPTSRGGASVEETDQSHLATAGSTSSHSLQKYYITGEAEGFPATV

In the case of CC(=O)O[C@H]1C(=O)[C@@]2(C)[C@H]([C@H](OC(=O)c3ccccc3)[C@]3(O)C[C@H](OC(=O)[C@H](O)[C@@H](NC(=O)c4ccccc4)c4ccccc4)C(C)=C1C3(C)C)[C@]1(OC(C)=O)CO[C@@H]1C[C@@H]2O [paclitaxel], the “effect on CARβ reporter activity” value (mouse CARβ) is reported as “no effect”, the “rate of [14C]-paclitaxel efflux versus untreated cells” value [1] is reported as “significantly faster” and the “effect on VDR reporter activity” value (human VDR) is reported as “no effect”. The “effect on ERα reporter activity” value (human ERα) was “no effect”, the “effect on PPARδ reporter activity” value (mouse PPARδ) was “no effect” and the Km (CYP3A4 and CYP2C8) was ~10 µM. The “effect on PPARα reporter activity” value (mouse PPARα) was “no effect” and the “fecal excretion for which P-glycoprotein is responsible” value (P-glycoprotein) was 85%.
